Experimental findings from patent US11214540B2, “Compositions for treating neurodegenerative diseases” (COGNITION THERAPEUTICS, INC., priority 2017, dated 2022) are described below.

The log P is the decadic logarithm of the partition coefficient of the neutral form, usually between octanol and water. Lower therefore signals lower lipophilicity. As usually defined, the logP is the decadic logarithm of the partition coefficient of the neutral form, usually between octanol and water. A lower logP goes with lower lipophilicity.

A short description of one data set: log P. Type of data set: physicochemical.
Details: not given
The text has this: The term “log P” refers to the partition coefficient of a compound. The partition coefficient is the ratio of concentrations of un-ionized compound in each of two solution phases, for example, octanol and water. To measure the partition coefficient of ionizable solute compounds, the pH of the aqueous phase is adjusted such that the predominant form of the compound is un-ionized. The logarithm of the ratio of concentrations of the un-ionized solute compound in the solvents is called log P. The log P is a measure of lipophilicity. For example, log Poct/wat=log([solute]octanol/[solute]un-ionized,water).
Combined Results for particular compounds described herein, with respect to log P, membrane trafficking (uM), sigma-2 receptor affinity, sigma-1 receptor affinity microsomal stability in mouse liver microsomes (MLM) (t1/2, min), t1/2 normalized to CT)10914 and in vitro toxicity potassium channel hERG (IC50, nM) are provided in Table 1: […]
As to `CC(C)(CCN1CCC(CO)CC1)c1ccccc1` [Compound 308], the “log P” value is listed as 3.01. The same measure, in the same setting: to `COc1cc(CCC(C)(C)N2Cc3cccc(C(=O)N4CCN(C(=O)[C@@H](N)Cc5ccccc5)CC4)c3C2)ccc1O` [Compound 259] belongs 4.03; to `COc1cc(CCC(C)(C)N2Cc3cccc(C(=O)N4CCN(C(=O)[C@H](C)O)CC4)c3C2)ccc1O` [Compound 281], 2.48; to `CC(C)=CC(CC(C)(C)c1ccc(OC(C)(C)C)cc1)N1CCC2(CCOCC2)CC1` (stereo not drawn) [Compound 168], 6.17. `CC(C)=C[C@@H](CC(C)(C)c1ccc(C(F)(F)F)cc1)N1CCC(C)(O)CC1` [Compound 266]: the “log P” value came out at 5.13. Same read-out and setting: as for `COc1cc(CCC(C)(C)N2Cc3cccc(C(=O)N4CCN(C(=O)[C@@H](Cc5ccccc5)NC(C)=O)CC4)c3C2)ccc1O` [Compound 280], the figure is 3.85; as for `COC[C@H]1CCCN1CCC(C)(C)c1ccccc1` [Compound 300], 3.65; as for `CC(C)=CC(CC(C)(C)c1ccc(F)cc1)N1CCC(C)(OC(=O)NC(C)C)CC1` (stereo not drawn) [Compound 215], 5.5. Consider `COC[C@H]1CCCN1C(C=C(C)C)CC(C)(C)c1ccc(Cl)cc1` (stereo partly drawn) [Compound 246], for which the “log P” value is recorded as 5.68.

Consider `CC(C)=CC(NCC(C)C)C(C)(C)Oc1ccc(Cl)cc1` (stereo not drawn) [Compound 177], for which the “log P” value is listed as 5.42. Consider `CCOC(=O)C1CCN(C(C)CC(C)(C)c2ccc(Cl)cc2)CC1` (stereo not drawn) [Compound 268], for which the “log P” value was 4.83. For `CC(C)(CC(c1ccccc1)N1CCC(C2CCOCC2)CC1)c1ccc(Cl)cc1` (stereo not drawn) [Compound 119], the “log P” value was found to be 6.67.

Take `COC(=O)[C@@H]1CCCN1CCC(C)(C)c1ccccc1` [Compound 293]: the “log P” value is 3.48.

Turning to `CC(C)(CCN1CCC(CCO)CC1)c1ccc(Cl)cc1` [Compound 284], the “log P” value amounted to 3.98. With `CC(C)=CC(CC(C)(C)c1ccc(C(F)(F)F)cc1)N1CCNC(=O)C1` (stereo not drawn) [Compound 206], the “log P” value is 4.26.

Take `CC(C)(CCN1CCC(C)(c2ccccc2)CC1)c1ccccc1` [Compound 297]: the “log P” value is listed as 5.81. On to `CC(C)=CC(CC(C)(C)c1ccc(Cl)cc1)N1CCC[C@H]1CO` (stereo partly drawn) [Compound 237], for which the “log P” value came to 5.04. Same read-out and setting: to `C[C@@H]1CCN(CCC(C)(C)c2ccc(F)cc2)C1` [Compound 323] belongs 4.15; to `CC(C)=CC(NCC(C)C)C(C)(C)Oc1ccc(F)cc1` (stereo not drawn) [Compound 176], 4.96; to `COc1cc(CCC(C)(C)N2Cc3cccc(C(=O)N4CCN(C(=O)CN(C)C)CC4)c3C2)ccc1O` [Compound 258], 2.62. As to `CC(C)(CCN1CCC(O)(c2ccccc2)CC1)c1ccc(Cl)cc1` [Compound 285], the “log P” value is recorded as 4.81.

Regarding `COc1cc(CCC(C)(C)N2Cc3cccc(C(=O)N4CCN(C(=O)OCc5oc(=O)oc5C)CC4)c3C2)ccc1O` [Compound 309], the “log P” value is 3.96. Turning to `COc1cc(CCC(C)(C)N2Cc3cccc(C(=O)N4CCN(C(=O)[C@@H]5CCCN5C(C)=O)CC4)c3C2)ccc1O` [Compound 282], the “log P” value was found to be 2.47. Regarding `CCOC(=O)N1CCN(C(C=C(C)C)CC(C)(C)c2ccc(F)cc2)CC1` (stereo not drawn) [Compound 196], the “log P” value is reported as 4.85.

For the molecule `CC(C)(CCN1CCC(C)(c2ccccc2)CC1)c1ccc(F)cc1` [Compound 316], the “log P” value is recorded as 4.34. Still for that read-out and setting: as for `CC(C)(CC(c1ccccc1)N1CCOCC1)c1ccc(Cl)cc1` (stereo not drawn) [Compound 120], the figure is 5.4.

Consider `COc1cc(CCC(C)(C)N2Cc3cccc(C(=O)N4CCN(C(=O)CNC(C)=O)CC4)c3C2)ccc1O` [Compound 279], for which the “log P” value is recorded as 1.63. Still for that read-out and setting: to `CCCCC1(OC(=O)NC(C)C)CCN(C(C=C(C)C)CC(C)(C)c2ccc(Cl)cc2)CC1` (stereo not drawn) [Compound 225] belongs 7.37; to `CCOC(=O)C1CCN(CCC(C)(C)c2ccc(F)cc2)CC1` [Compound 322], 3.95; to `COC[C@H]1CCCN1C(C=C(C)C)CC(C)(C)c1ccc(C(F)(F)F)cc1` (stereo partly drawn) [Compound 247], 5.95. On the same count and under the same terms, to `CCCCC1(O)CCN(C(C=C(C)C)CC(C)(C)c2ccc(Cl)cc2)CC1` (stereo not drawn) [Compound 214] belongs 6.27; to `COC1CCN(C(C=C(C)C)CC(C)(C)c2ccccc2)CC1` (stereo not drawn) [Compound 202], 4.62; to `CC(C)=C[C@H](CC(C)(C)c1ccc(C(F)(F)F)cc1)N1CCC[C@@H]1CO` [Compound 243], 5.31. On the same count and under the same terms, to `CC(C)=CC(CC(C)(C)c1ccc(C(F)(F)F)cc1)N1CCN(S(=O)(=O)N(C)C)CC1` (stereo not drawn) [Compound 207] belongs 4.09; to `CC(C)=CC(CC(C)(C)c1ccc(F)cc1)N1CCN(C)C(=O)C1` (stereo not drawn) [Compound 203], 3.75; to `CCOC(=O)C1CCN(C(C=C(C)C)CC(C)(C)c2ccc(F)cc2)CC1` (stereo not drawn) [Compound 267], 5.37. Regarding `CC(C)=CC(CC(C)(C)c1ccc(C(F)(F)F)cc1)N1CCN(C(=O)c2ccccc2)CC1` (stereo not drawn) [Compound 155], the “log P” value is reported as 6.46. As to `CC(C)(CCN1CCC(CO)CC1)c1ccc(Cl)cc1` [Compound 283], the “log P” value came out at 3.62. As to `CCOC(=O)C1CCN(C(C=C(C)C)CC(C)(C)c2ccc(Cl)cc2)CC1` (stereo not drawn) [Compound 248], the “log P” value worked out at 5.84. For the molecule `CC(C)=C[C@H](CC(C)(C)c1ccc(C(F)(F)F)cc1)N1CCC(C)(O)CC1` [Compound 265], the “log P” value amounted to 5.13.

With `CC(C)=CC(CC(C)(C)c1ccc(C(F)(F)F)cc1)N1CCN(C(=O)OCC(C)C)CC1` (stereo not drawn) [Compound 209], the “log P” value is given as 6.47. Same read-out and setting: to `COC[C@@H]1CCCN1CCC(C)(C)c1ccccc1` [Compound 302] belongs 3.65; to `CC(C)=CC(CC(C)(C)c1ccc(C(F)(F)F)cc1)N1CCC(C)(OC(=O)NC(C)C)CC1` (stereo not drawn) [Compound 228], 6.24; to `COCCNC(C=C(C)C)C(C)(C)Oc1ccc(Cl)cc1` (stereo not drawn) [Compound 175], 4.13. Same read-out and setting: as for `CC(C)(CCN1CCC(C2CCOCC2)CC1)c1ccccc1` [Compound 313], the figure is 4.28. Regarding `COc1cc(CCC(C)(C)N2Cc3cccc(C(=O)N4CCN(C(=O)[C@@H]5CCCN5)CC4)c3C2)ccc1O` [Compound 260], the “log P” value was 2.46.

Take `COCCCC1CCN(CCC(C)(C)c2ccc(F)cc2)CC1` [Compound 321]: the “log P” value stood at 4.61. Same read-out and setting: to `COC[C@@H]1CCCN1CCC(C)(C)c1ccc(Cl)cc1` [Compound 289] belongs 4.26. On the same count and under the same terms, to `CC(C)(CCN1CC[C@@H](O)C1)c1ccc(C(F)(F)F)cc1` [Compound 315] belongs 3.37. On the same count and under the same terms, to `CC(C)(CC(NCC1CCOCC1)c1ccccc1)c1ccc(Cl)cc1` (stereo not drawn) [Compound 121] belongs 5.66.

On to `COCC1CCCN1C(C=C(C)C)CC(C)(C)c1ccc(Cl)cc1` (stereo not drawn) [Compound 234], for which the “log P” value came out at 5.68. The same measure, in the same setting: to `COCCCC1CCN(CCC(C)(C)c2ccc(Cl)cc2)CC1` [Compound 324] belongs 5.07; to `COC(=O)[C@H]1CCCN1CCC(C)(C)c1ccc(Cl)cc1` [Compound 290], 4.08; to `COCCNC(C=C(C)C)C(C)(C)Oc1ccccc1` (stereo not drawn) [Compound 172], 3.52. On the same count and under the same terms, as for `CCCCC1(O)CCN(C(C=C(C)C)CC(C)(C)c2ccccc2)CC1` (stereo not drawn) [Compound 223], the figure is 5.67; as for `COC[C@@H]1CCCN1C(C=C(C)C)CC(C)(C)c1ccc(C(F)(F)F)cc1` (stereo partly drawn) [Compound 275], 5.95.

The same data set, now with this note: octanol/water.
Regarding `COC[C@@H]1CCCN1CCC(C)(C)c1ccc(C(F)(F)F)cc1` [Example 317], the logP came out at 4.53.
